Source: ChEMBL document CHEMBL4325847, “Dihydropyrazothiazole derivatives as potential MMP-2/MMP-8 inhibitors for cancer therapy” (Bioorg Med Chem Lett, 2018)

Key:
[1] = molecular target: 72 kDa type IV collagenase (Homo sapiens, UniProt P08253); test: Inhibition of recombinant human MMP-2 preincubated for 10 mins followed by Mca-PLGL-Dpa-AR-NH2 substrate addition and measured for 5 mins by fluorescence assay
[2] = molecular target: Neutrophil collagenase (Homo sapiens, UniProt P22894); test: Inhibition of recombinant human MMP-8 using Mca-PLGL-Dpa-AR-NH2 as substrate preincubated for 10 mins followed by substrate addition and measured for 5 mins by fluorescence assay
[3] = test system: MCF7; test: Induction of apoptosis in human MCF7 cells assessed as necrotic cells at 32 uM after 48 hrs by Annexin V-FITC/propidium iodide staining-based flow cytometric analysis (reference value: 0.343%); assay type: functional
[4] = test system: HeLa; test: Antiproliferative activity against human HeLa cells after 48 hrs by MTT assay; assay type: functional, cell-based
[5] = test system: MCF7; test: Induction of apoptosis in human MCF7 cells assessed as late apoptotic cells at 8 uM after 48 hrs by Annexin V-FITC/propidium iodide staining-based flow cytometric analysis (reference value: 5.33%); assay type: functional
[6] = test system: MCF7; test: Induction of apoptosis in human MCF7 cells assessed as necrotic cells at 8 uM after 48 hrs by Annexin V-FITC/propidium iodide staining-based flow cytometric analysis (reference value: 0.343%); assay type: functional
[7] = test system: MCF7; test: Induction of apoptosis in human MCF7 cells assessed as necrotic cells at 2 uM after 48 hrs by Annexin V-FITC/propidium iodide staining-based flow cytometric analysis (reference value: 0.343%); assay type: functional
[8] = test system: MCF7; test: Induction of apoptosis in human MCF7 cells assessed as live cells at 32 uM after 48 hrs by Annexin V-FITC/propidium iodide staining-based flow cytometric analysis (reference value: 91.8%); assay type: functional
[9] = test system: L02; test: Cytotoxicity against human LO2 cells by MTT assay; assay type: cell-based
[10] = test system: MCF7; test: Induction of apoptosis in human MCF7 cells assessed as late apoptotic cells at 2 uM after 48 hrs by Annexin V-FITC/propidium iodide staining-based flow cytometric analysis (reference value: 5.33%); assay type: functional
[11] = test system: MCF7; test: Induction of apoptosis in human MCF7 cells assessed as live cells at 2 uM after 48 hrs by Annexin V-FITC/propidium iodide staining-based flow cytometric analysis (reference value: 91.8%); assay type: functional
[12] = test system: MCF7; test: Induction of apoptosis in human MCF7 cells after 48 hrs by Annexin V-FITC/propidium iodide staining-based flow cytometric analysis; assay type: functional, cell-based
[13] = test system: MCF7; test: Induction of apoptosis in human MCF7 cells assessed as early apoptotic cells at 32 uM after 48 hrs by Annexin V-FITC/propidium iodide staining-based flow cytometric analysis (reference value: 2.54%); assay type: functional
[14] = test system: MCF7; test: Induction of apoptosis in human MCF7 cells assessed as early apoptotic cells at 8 uM after 48 hrs by Annexin V-FITC/propidium iodide staining-based flow cytometric analysis (reference value: 2.54%); assay type: functional
[15] = test system: HepG2; test: Antiproliferative activity against human HepG2 cells after 48 hrs by MTT assay; assay type: functional, cell-based; details: HepG2, 48 h
[16] = test system: MCF7; test: Induction of apoptosis in human MCF7 cells assessed as live cells at 8 uM after 48 hrs by Annexin V-FITC/propidium iodide staining-based flow cytometric analysis (reference value: 91.8%); assay type: functional
[17] = test system: MCF7; test: Induction of apoptosis in human MCF7 cells assessed as late apoptotic cells at 32 uM after 48 hrs by Annexin V-FITC/propidium iodide staining-based flow cytometric analysis (reference value: 5.33%); assay type: functional
[18] = test system: HEK-293T; test: Cytotoxicity against human 293T cells by MTT assay; assay type: cell-based
[19] = test system: MCF7; test: Induction of apoptosis in human MCF7 cells assessed as early apoptotic cells at 2 uM after 48 hrs by Annexin V-FITC/propidium iodide staining-based flow cytometric analysis (reference value: 2.54%); assay type: functional
[20] = test system: MCF7; test: Antiproliferative activity against human MCF7 cells after 48 hrs by MTT assay; assay type: functional, cell-based; details: MCF7, 48 h

72 kDa type IV collagenase, sequence (P08253 whole entry): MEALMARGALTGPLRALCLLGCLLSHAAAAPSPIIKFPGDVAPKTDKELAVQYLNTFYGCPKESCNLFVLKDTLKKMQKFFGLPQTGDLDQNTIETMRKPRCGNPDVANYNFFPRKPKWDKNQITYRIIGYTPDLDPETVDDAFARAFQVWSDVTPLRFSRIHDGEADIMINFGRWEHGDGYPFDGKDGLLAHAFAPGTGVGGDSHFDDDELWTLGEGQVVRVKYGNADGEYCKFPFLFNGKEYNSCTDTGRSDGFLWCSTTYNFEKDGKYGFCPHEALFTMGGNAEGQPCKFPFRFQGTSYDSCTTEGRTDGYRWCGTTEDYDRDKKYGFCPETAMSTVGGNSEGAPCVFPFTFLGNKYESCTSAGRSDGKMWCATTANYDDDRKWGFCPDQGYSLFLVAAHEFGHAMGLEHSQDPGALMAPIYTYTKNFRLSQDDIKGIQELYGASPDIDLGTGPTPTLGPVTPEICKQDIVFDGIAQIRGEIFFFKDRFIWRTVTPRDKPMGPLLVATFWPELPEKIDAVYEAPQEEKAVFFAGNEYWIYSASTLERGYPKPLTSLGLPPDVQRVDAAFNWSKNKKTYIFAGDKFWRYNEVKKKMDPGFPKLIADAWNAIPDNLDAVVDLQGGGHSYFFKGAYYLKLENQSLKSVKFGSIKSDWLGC
Neutrophil collagenase, sequence (P22894 whole entry): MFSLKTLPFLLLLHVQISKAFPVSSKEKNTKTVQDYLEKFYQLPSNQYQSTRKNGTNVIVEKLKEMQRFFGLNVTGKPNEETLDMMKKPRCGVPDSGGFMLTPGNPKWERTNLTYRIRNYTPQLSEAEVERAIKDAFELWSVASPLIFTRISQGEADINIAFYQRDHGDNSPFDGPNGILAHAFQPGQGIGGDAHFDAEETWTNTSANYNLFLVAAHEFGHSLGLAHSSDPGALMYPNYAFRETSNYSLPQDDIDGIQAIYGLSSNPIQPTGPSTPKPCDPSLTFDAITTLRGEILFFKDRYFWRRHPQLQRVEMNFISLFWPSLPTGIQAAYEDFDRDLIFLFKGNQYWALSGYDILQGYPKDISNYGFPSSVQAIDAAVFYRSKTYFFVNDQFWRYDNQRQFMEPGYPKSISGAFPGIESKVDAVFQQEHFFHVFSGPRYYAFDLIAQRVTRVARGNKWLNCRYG

Structure (SMILES) | IC50 ([1]; read-out: IC50) [µM] | IC50 [2] [µM] | IC50 [4] [µM] | CC50 [9] [µM] | IC50 [15] [µM] | CC50 [18] [µM] | IC50 [20] [µM] | other results
C[C@@]1(O)c2cccc(O)c2C(=O)C2=C(O)[C@]3(O)C(=O)C(C(N)=O)=C(O)C[C@@H]3C[C@@H]21 | 1.29 | 21.9 |  |  |  |  |  | 
COc1ccc(-c2csc(N3N=C(c4ccccc4)CC3c3ccccc3O)n2)cc1 (configuration not stated) | 11.2 | 48.9 | 8.64 | 72.4 | 11.9 | 57.1 | 1.03 | Activity [3]: 0.198%; Activity [5]: 43.6%; Activity [6]: 0.207%; Activity [7]: 0.216%; Activity [8]: 36.6%; Activity [10]: 22.4%; Activity [11]: 73%; Activity [12]: Dose-dependent effect; Activity [13]: 2.29%; Activity [14]: 2.57%; Activity [16]: 53.7%; Activity [17]: 60.9%; Activity [19]: 4.44%
COc1ccc(C2=NN(c3nc(-c4ccccc4)cs3)C(c3ccccc3O)C2)cc1 (configuration not stated) | 12.9 | 30.5 | 18.2 | 75.2 | 23.3 | 64.1 | 2.39 | 
Oc1ccccc1C1CC(c2ccc(F)cc2)=NN1c1nc(-c2ccc(Br)cc2)cs1 (configuration not stated) | 12.3 | 48.8 | 2.7 | 48.2 | 15 | 52 | 1.47 | 
Oc1ccccc1C1CC(c2ccccc2)=NN1c1nc(-c2ccc(C(F)(F)F)cc2)cs1 (configuration not stated) | 48.2 | > 100 | 2.25 | 42.8 | 8.85 | 25.4 | 3.5 | 
COc1ccc(C2=NN(c3nc(-c4ccc(C(F)(F)F)cc4)cs3)C(c3ccccc3O)C2)cc1 (configuration not stated) | 58.8 | > 100 | 29.3 | 45.6 | 12 | 45.4 | 11.1 | IC50 ([1]; read-out: pIC50 (converted)): 57.5 µM
Oc1ccccc1C1CC(c2ccc(F)cc2)=NN1c1nc(-c2ccc(C(F)(F)F)cc2)cs1 (configuration not stated) | 58.4 | 100 | 11.7 | 66.1 | 10.5 | 34.8 | 2.89 | 
COc1ccc(C2=NN(c3nc(-c4ccc(Br)cc4)cs3)C(c3ccccc3O)C2)cc1 (configuration not stated) | 16.9 | 36.8 | 28.1 | > 100 | 9.52 | 71.9 | 20.1 | 
Oc1ccccc1C1CC(c2ccccc2)=NN1c1nc(-c2cccc(Br)c2)cs1 (configuration not stated) | 28.3 | 86.5 | 5.51 | 42.3 | 21.7 | 41.8 | 1.07 | 
Oc1ccccc1C1CC(c2ccccc2)=NN1c1nc(-c2ccc(Br)cc2)cs1 (configuration not stated) | 34.8 | 75.6 | 4.88 | 65.2 | 17.6 | 52.8 | 2.14 | 
COc1cccc(-c2csc(N3N=C(c4ccc(F)cc4)CC3c3ccccc3O)n2)c1 (configuration not stated) | 6.7 | 36.4 | 9.73 | 43.8 | 17.8 | 39.1 | 4.01 | 
Oc1ccccc1C1CC(c2ccc(F)cc2)=NN1c1nc(-c2ccccc2)cs1 (configuration not stated) | 9.65 | 39.7 | 13.1 | 85.6 | 25 | 50.7 | 3.24 | 
COc1ccc(-c2csc(N3N=C(c4ccc(F)cc4)CC3c3ccccc3O)n2)cc1 (configuration not stated) | 10.8 | 28.2 | 17 | 85.6 | 18.2 | 59.4 | 4.56 | 
Oc1ccccc1C1CC(c2ccccc2)=NN1c1nc(-c2ccccc2)cs1 (configuration not stated) | 21.6 | 62.5 | 5.05 | 88.3 | 9.9 | 55.1 | 2.08 | IC50 ([1]; read-out: pIC50 (converted)): 21.4 µM
Cc1ccc(-c2cc(C(F)(F)F)nn2-c2ccc(S(N)(=O)=O)cc2)cc1 [CELECOXIB] |  |  |  | 78.2 | 0.78 | 55.8 | 6.96 | 
COc1ccc(C2=NN(c3nc(-c4cccc(OC)c4)cs3)C(c3ccccc3O)C2)cc1 (configuration not stated) | 2.8 | 25.6 | 13.7 | 56.2 | 12.6 | 35.2 | 3.72 | 
Oc1ccccc1C1CC(c2ccc(F)cc2)=NN1c1nc(-c2cccc(Br)c2)cs1 (configuration not stated) | 16.2 | 60.1 | 10.8 | 59.4 | 18.4 | 70.1 | 8.01 | 
COc1ccc(C2=NN(c3nc(-c4ccc(OC)cc4)cs3)C(c3ccccc3O)C2)cc1 (configuration not stated) | 11.7 | 65.2 | 16.3 | 49.7 | 15.3 | 63 | 3.17 | 
COc1cccc(-c2csc(N3N=C(c4ccccc4)CC3c3ccccc3O)n2)c1 (configuration not stated) | 8.31 | 35.8 | 2.73 | 57.9 | 10.9 | 46.6 | 5.3 | 
COc1ccc(C2=NN(c3nc(-c4cccc(Br)c4)cs3)C(c3ccccc3O)C2)cc1 (configuration not stated) | 14 | 48.1 | 13 | 68.7 | 7.55 | 24.5 | 4.42 | 
